The results in this text go back to patent US12551500B2, “C6′-substituted locked nucleic acid-modified cap analog and use thereof” (Hangzhou Tianlong Pharmaceutical Co., Ltd., priority 2024, dated 2026).

For one data set, the system named is BALB/C mice. The experiment in a line: In vivo imaging of protein expressed by LNP-carrying Fluc-mRNA in mice. Particulars: female BALB/C mice. How it is done: The LNP preparation containing […] of Fluc-mRNAs transcribed using the cap analogs YK-CAP-001 to 006 in the present disclosure and the cap analogs N-7413, compound 14, and m6A in the prior art was intramuscularly injected into female BALB/C mice aged 4 to 6 weeks and weighing 17 to 19 g. At specific time points after administration (6 hours, 12 hours, 24 hours, 48 hours, 96 hours, and 168 hours), the mice were intraperitoneally injected with fluorescence imaging substrate. The mice were then allowed to move freely for 5 minutes, followed by detection of the average radiation intensity (corresponding to the amount of protein expression) of the protein expressed by LNP-carrying mRNA in the mice using an IVIS Spectrum small-animal in vivo imaging system.

Data set [1] concerns the target T1, T7 RNA polymerase (Escherichia phage T7, UniProt P00573). The experiment in a line: Capping rate of in vitro transcribed mRNA by LC-MS. In kind it is biochemical. Particulars: mRNA transcribed with the cap analog, LC-MS. How it is done: (§1) YK-CAP-001 to 006 and compound 14 in Table 1 were respectively used as cap analogs.
(§2) During the experiment, the volume of materials required for the system was first calculated, and then sample addition was conducted. The system was first added with sterile enzyme-free water, followed by the sequential addition of 10× buffer, NTPs, and cap analogs, mixed well, and gently centrifuged. Nuclease inhibitors, inorganic pyrophosphatase, T7 RNA polymerase, and linearized DNA templates were then added thereto. The system was mixed well, gently centrifuged, and incubated at 37° C. After 2 hours of incubation, the system was added with 1 U of DNase I and incubated at 37° C. for another 30 minutes. The mRNA precipitate was then washed with 75% ethanol, and after the ethanol was briefly evaporated to dryness, the mRNA was redissolved in sterile enzyme-free water.
(4) The obtained mRNA was subjected to an annealing reaction with a probe.
The annealing reaction was performed in a PCR instrument: 95° C. for 5 minutes; 65° C. for 2 minutes; 55° C. for 2 minutes; 40° C. for 2 minutes; 22° C. for 2 minutes.
(5) Magnetic bead pretreatment and probe binding: 100 μL of magnetic beads was placed on a magnetic frame for pretreatment. The magnetic bead solution was added with 120 μL of sample and incubated at room temperature for 30 minutes with slow mixing.
(6) mRNA splicing and obtaining the 5′ single-strand sequence bound to the probe
The mixture was added with 20 μL of RNase H (5 U/μL) and incubated at 37° C. for 3 hours with mixing every half hour. After incubation, the magnetic beads were washed and then added with 100 μL of 75% methanol heated to 80° C. The mixture was heated to 80° C. on a heating plate, held for 3 minutes, then placed on a magnetic frame to aspirate the supernatant, and dried at room temperature for 45 minutes to a volume of 10 μL using a centrifugal evaporator. The sample was then resuspended in 50 μL of 100 μM EDTA/1% MeOH and ready for LC-MS analysis to determine the capping of RNA in the transcription reaction. Since there is a significant difference in molecular weight between capped and uncapped bases, the capping rate of mRNA transcription initiated by different cap analogs can be determined based on the difference in molecular mass.

A short description of data set [2]: Characterization of lipid nanoparticles encapsulating Fluc-mRNA. In kind it is physicochemical. How it is done: Cationic lipid YK-009 (Beijing Youcare Kechuang Pharmaceutical Technology Co., Ltd.), DSPC (AVT (Shanghai) Pharmaceutical Technology Co., Ltd.), cholesterol (AVT (Shanghai) Pharmaceutical Technology Co., Ltd.), and DMG-PEG2000 were dissolved in ethanol at a molar ratio of 49:10:39.5:1.5, and the mRNA was diluted in 50 mM citrate buffer (pH=4). The ethanol lipid solution was mixed with the Fluc-mRNA aqueous solution prepared from different cap structures at a volume ratio of 1:3 using a microfluidic device at a flow rate of 10 mL/min to prepare LNPs at a weight ratio of total lipid to mRNA of approximately 15:1. The resulting liposomes were diluted to 10-fold volume with PBS, and then ultrafiltered with a 300 KDa ultrafiltration tube to remove ethanol. The volume was then fixed to a certain volume with PBS. Finally, the LNPs were filtered through a 0.2 μm sterile filter to obtain an LNP preparation encapsulating Fluc-mRNA using YK-009/DSPC/cholesterol/DMG-PEG2000 (at a molar ratio of 49:10:39.5:1.5).
The particle size and polydispersity index (PDI) were determined by dynamic light scattering using a Malvern laser particle size analyzer. 10 μL of the liposome solution was taken, diluted to 1 mL with RNase-free deionized water, and added to a sample pool. Each sample was measured in triplicate. The measurement conditions were: a scattering angle of 90° and a temperature of 25° C. The encapsulation efficiency of LNPs was determined using the Quant-iT RiboGreen RNA Quantification Kit (Thermo Fisher Scientific, UK) according to the manufacturer's instructions.

Data set [3] concerns the target T1, T7 RNA polymerase. The experiment in a line: In vitro transcription yield of mRNA with cap analog (co-transcriptional capping). In kind it is biochemical. Particulars: in vitro transcription, 1 μg DNA template, 20 μL system, 37° C. 2 hours. The protocol:
(1) Capping synthesis using cap analogs
The plasmid was first linearized with plasmid linearizing enzyme, and then the linearized plasmid was purified.
(2) In vitro transcription and synthesis of mRNA
as §1, §2
(3) The transcription product was purified, and the in vitro transcription yield of mRNA was recorded.

A further data set concerns the target T2, DCP2 enzyme (Schizosaccharomyces pombe, UniProt O13828).
T2 construct: purchased New England Biolabs
T2 sequence (O13828 1-243 limits assumed): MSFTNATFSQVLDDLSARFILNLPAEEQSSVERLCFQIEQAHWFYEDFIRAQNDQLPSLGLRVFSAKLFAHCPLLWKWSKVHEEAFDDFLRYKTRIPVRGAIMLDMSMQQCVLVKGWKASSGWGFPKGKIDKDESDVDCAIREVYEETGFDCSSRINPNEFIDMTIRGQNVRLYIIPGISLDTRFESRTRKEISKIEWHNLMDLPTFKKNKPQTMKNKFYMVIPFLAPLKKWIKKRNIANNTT
T2 sequence (Q9P805 1-127 partner): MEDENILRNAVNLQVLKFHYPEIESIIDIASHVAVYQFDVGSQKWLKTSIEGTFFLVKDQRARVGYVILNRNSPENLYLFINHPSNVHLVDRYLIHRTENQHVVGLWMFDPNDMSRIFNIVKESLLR
T2 sequence (Q10108 155-180 partner limits assumed): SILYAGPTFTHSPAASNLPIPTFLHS
The experiment in a line: Decapping enzyme stability test. In kind it is biochemical. Particulars: 30 pmol RNA, 50 U mRNA decapping enzyme, 37° C., 45 minutes. How it is done: 30 pmol of RNAs purified by polyacrylamide gel electrophoresis (PAGE) was subjected to an enzymatic reaction with 50 U of mRNA decapping enzyme (New England Biolabs) and 1×MDE buffer at 37° C. for 45 minutes. The enzymatic reactants were subjected to PAGE and stained with SYBR Green II (Lonza), followed by observation of the post-electrophoresis gel image on a Typhoon FLA 7000 (GE Healthcare) instrument. The electrophoresis band intensity ratio of RNA capping to RNA decapping was counted using ImageQuant (GE Healthcare) software, and the decapping rate of the decapping enzyme was calculated (as shown in Table 6).

T1 sequence (P00573 whole entry): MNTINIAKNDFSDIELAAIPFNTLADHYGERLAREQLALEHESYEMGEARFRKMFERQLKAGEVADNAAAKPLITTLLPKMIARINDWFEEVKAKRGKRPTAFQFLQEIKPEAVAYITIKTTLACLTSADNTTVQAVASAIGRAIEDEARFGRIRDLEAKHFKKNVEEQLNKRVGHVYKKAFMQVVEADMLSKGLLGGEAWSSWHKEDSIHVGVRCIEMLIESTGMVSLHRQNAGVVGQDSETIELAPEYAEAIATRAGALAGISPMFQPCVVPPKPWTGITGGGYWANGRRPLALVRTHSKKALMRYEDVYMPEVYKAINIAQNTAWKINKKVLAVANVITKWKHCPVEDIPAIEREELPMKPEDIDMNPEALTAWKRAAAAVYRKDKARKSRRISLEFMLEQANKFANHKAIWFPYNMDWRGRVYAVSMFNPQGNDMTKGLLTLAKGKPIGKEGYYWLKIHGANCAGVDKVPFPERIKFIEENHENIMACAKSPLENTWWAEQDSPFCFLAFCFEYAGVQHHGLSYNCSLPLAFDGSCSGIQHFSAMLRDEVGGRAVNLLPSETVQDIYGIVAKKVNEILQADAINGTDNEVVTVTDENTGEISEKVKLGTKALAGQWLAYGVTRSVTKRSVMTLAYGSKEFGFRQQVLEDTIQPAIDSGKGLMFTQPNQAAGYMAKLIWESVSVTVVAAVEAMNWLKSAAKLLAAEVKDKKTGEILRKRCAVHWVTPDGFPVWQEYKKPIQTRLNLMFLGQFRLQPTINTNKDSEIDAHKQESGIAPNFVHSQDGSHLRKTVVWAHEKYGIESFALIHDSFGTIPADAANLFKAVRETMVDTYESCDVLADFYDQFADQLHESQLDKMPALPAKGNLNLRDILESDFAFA

As to `COC1C(OP(=O)([O-])OC[C@H]2O[C@@H](n3cnc4c(=O)[nH]c(N)nc43)C(O)C2O)[C@@H](COP(=O)(O)OP(=O)(O)OP(=O)(O)OC[C@]23COC(C2O)[C@H]([n+]2cn(C)c4c(=O)[nH]c(N)nc42)O3)O[C@H]1n1cnc2c(N)ncnc21` (stereo partly shown) [Compound 14, reference compound], the Average radiation intensity in the data set on BALB/C mice (6 h after intramuscular injection of LNP Fluc-mRNA) is 2589500 p/s/cm^2/sr; in the data set with BALB/C mice (6 h after intramuscular injection of LNP Fluc-mRNA, listed as compound 14), 2,589,500 p/s/cm^2/sr; in the data set on BALB/C mice (12 h after intramuscular injection of LNP Fluc-mRNA) it was 1622075 p/s/cm^2/sr; in the data set with BALB/C mice (24 h after intramuscular injection of LNP Fluc-mRNA), 1099050 p/s/cm^2/sr; in the data set with BALB/C mice (48 h after intramuscular injection of LNP Fluc-mRNA) it was 946675 p/s/cm^2/sr; with BALB/C mice (96 h after intramuscular injection of LNP Fluc-mRNA), 57270 p/s/cm^2/sr. Besides, the Average radiation intensity in the data set on BALB/C mice (168 h after intramuscular injection of LNP Fluc-mRNA) worked out at 17828 p/s/cm^2/sr. Besides, the Capping rate on T7 RNA polymerase [1] was 77.5%. The Particle size in data set [2] (LNP (YK-009/DSPC/cholesterol/DMG-PEG2000) encapsulating Fluc-mRNA transcribed using the cap analog) is recorded as 102.2 nm. Further, in data set [2] (LNP encapsulating Fluc-mRNA transcribed using the cap analog), the PDI amounted to 0.018. Moreover, the EE in data set [2] (encapsulation efficiency of LNP encapsulating Fluc-mRNA transcribed using the cap analog) is on record as 96.8%. In addition, the “Yield per unit template” value on T7 RNA polymerase [3] was determined as 120.9 µg. For the same molecule, on DCP2 enzyme, the “Decapping rate (%) of DCP2 enzyme” value stood at 28.8%.
